Test results published in patent publication US20080293699A1, “Inhibitors of thapsigargin-induced cell death” (priority 2007, published 2008).
Entries after “also recorded” stand apart in the source; their conditions may differ. Like-named read-outs stand apart in the source and are kept apart here.

Experiments:
Assay type in all cases: cell-based, rat
[1] = system: CSM14.1 cells; assay: Primary HTS assay: ATP content (ATPlite) of undifferentiated CSM14.1 cells challenged with thapsigargin; settings: for Activity against thapsigargin-induced cell death / cell protection: cell death assay used for primary screening; for IC50: thapsigargin-induced death of undifferentiated CSM14.1, ATP content
Text: For convenience, and because transient reductions in temperature that might be associated with large screening experiments could restore Large T activity, we elected to develop our HTS using undifferentiated CSM14.1 cells, with the plan to then confirm hits using differentiated cells. For monitoring cell death, we used a commercially available bioluminescence reagent that determines intracellular ATP content, without requirement for complicated cell processing steps (ATPlite, Perkin Elmer). Thus, ATP was used as a surrogate indicator of cell survival for the primary assay.
Undifferentiated or differentiated CSM14.1 cells were plated at a density of 3,000 cells/well in 40 μL DMEM medium (containing 10% serum, 1 mM L-glutamine, and antibiotics) in 96 well flat-bottom microtiter plates composed of polystrene (Greiner Bio One, polystyrene, white wall, flat bottom, lumitrac, high binding). After overnight incubation at 32° C., DMSO (0.5% v/v) or 100 uM Salubrinal (Sal) in DMSO was delivered. After 2 hrs, 5 uL of a stock solution of 150 uM TG in DMEM medium containing 0.75% (v:v) DMSO to achieve a final concentration of approximately 15 uM. After culturing for 24 hrs, cellular ATP content was measured by addition of 20 uL per well of ATPlite solution (Perkin-Elmer), and then the plates were incubated for three minutes at room temperature, before reading with a Microplate Luminometer (BD Pharmingen Moonlight model 3096).
To determine the reproducibility of the ATP content assay, we prepared a 96-well plate in which half the wells received TG plus DMSO (assay minimum) and half received TG plus Salubrinal (assay maximum), then performed the ATP content studies using undifferentiated CSM14.1 cells (FIG. 6). CSM14.1 cells were cultured overnight at 3,000 cells per well in 96-well flat-bottom plates, then either DMSO (0.5% final concentration) or Salubrinal (100 μM) in DMSO (0.5% final concentration) was added to half the well (48 each). After two hrs, TG was added to all wells (15 μM final). Cells were cultured for 24 hrs, then the ATP content was measured using the ATPlite luminogenic assay. We then adapted this assay to the high-throughput environment, using a Biomex™ FX liquid handler for automated dispensing of assay components into microwells of 96-well plates. First, undifferentiated CSM14.1 cells were grown at 32° C. in DMEM medium supplemented with 10% fetal bovine serum (FBS), 1% penicillin/streptomycin, and 1% L-glutamine in 150 mm×25 mm polystyrene culture dishes to produce approximately 3×10^6 cells. Second, CSM14.1 cells were recovered from cultures by trypsinization when at 80-90% confluence, and suspended at 7.5×10^4 cells/mL in DMEM medium containing 2% FBS, 1 mM L-glutamine, and antibiotics 100 IU penicillin 100 μg/ml streptomycin. Third, the cell suspension was then delivered at 40 μL per well of 96-well plastic microtiter plates (Greiner Bio One, polystyrene, white wall, flat bottom, lumitrac, high binding, cat #655074), and the plates were cultured overnight at 32° C. in a humidified atmosphere in 95% air: 5% CO2. Fourth, using the automated liquid handler, 5 μL of test compounds in 10% DMSO were added to wells in columns 2-11 of the 96-well plates (leaving columns 1 and 12 intact) to achieve an approximate final concentration of 15 μg/mL test compound and a final concentration of 1% DMSO. Fifth, 5 μL of 1 mM Salubrinal in a solution of 10% DMSO:90% DMEM was added to wells of column 1/rows A-D of each plate, while 5 μL of 10% DMSO:90% DMEM solution was added to wells corresponding to column 1/rows E-H and to all wells in column 12. Sixth, the plates were returned to culture.

[2] = system: CSM14.1 cells; assay: Annexin V staining viability assay (flow cytometry), thapsigargin-treated undifferentiated CSM14.1 cells; settings: hit compounds 25 μM, TG 15 μM
Procedure: Undifferentiated CSM14.1 cells were cultured as for FIG. 16. The next day, DMSO (a, b) (1% final volume), 100 μM Salubrinal (c, d) or 25 μM of hit compounds (1% final DMSO) was added. After two hrs, 15 μM TG was added to all wells except a and c. The plates were returned to culture for 24 hrs, then cells were recovered by trypsinization, transferred to 1.5 ml microcentrifuge tubes, and resuspended in 0.5 mL of Annexin V-binding solution. The percentage of annexin V-negative cells was determined by flow-cytometry (y-axis). Treatments and compounds were the same as in FIG. 16.
One method we have employed, for example, for confirming protection against TG-induced killing uses fluorochrome-conjugated annexin V staining with flow-cytometry analysis to evaluate the percentage cell viability by a method that is independent of the ATP content assay.
FIGS. 16 and 17 show the results of a secondary assay for evaluating the cytoprotective activity of the compounds. In FIG. 16, undifferentiated CSM14.1 cells were cultured at 10^4 cells per well of 24-well plates (Greiner Bio One). The next day, DMSO (a, b) (1% final volume), 100 μM Salubrinal (c, d) or 25 μM of hit compounds (1% final DMSO) was added. After two hrs, 15 μM TG was added to all wells except a and c. A conventional ATP assay was performed to measure survival rate. In FIG. 17 undifferentiated CSM14.1 cells were cultured at 10^4 cells per well of 24-well plates (Greiner Bio One). The next day, DMSO (a, b) (1% final volume), 100 μM Salubrinal (c, d) or 25 μM of hit compounds (1% final DMSO) was added. After two hrs, 15 μM TG was added to all wells except a and c. […] The percentage of annexin V-negative cells was determined by flow-cytometry (y-axis), using a FACSort instrument (Beckton-Dickinson). […]
7) The percentage of annexin V-negative cells was determined by flow-cytometry (y-axis), using a FACSort analysis facility in Burnham (Beckton & Dickinson)

[3] = system: phospho-c-Jun; assay: Immunoblotting of thapsigargin-induced c-Jun phosphorylation in CSM14.1 cells; settings: immunoblotting with phospho-specific antibody, 10 μM, 25 μM hits
Text: After confirming the pathway selectivity of compounds, additional downstream assays can be performed to map the specific signal transduction pathway inhibited by the compounds. In this regard, various antibody reagents are commercially available for assessing the status of the three major pathways known to be activated by ER stress: (1) PERK, (2) Ire1, and (3) ATF6 (Xu et al., J. Clinical Invest., 115:2656-2664, 2005). Immunoblotting experiments can be performed to assess the expression or phosphorylation (using phospho-specific antibodies) of marker proteins in these pathways. […] CSM 14.1 cells were cultured with DMSO or with 25 μM of hit compounds for two hours, followed by treatment of thapsigargin (15 μM). Cell lysates were prepared and analyzed by SDS-PAGE/immunoblotting using antibodies specific for phospho-c-Jun, phospho-eIF2α, phospho-p38 MAPK, and tubulin (a loading control). CSM14.1 cells were cultured with either DMSO or one of the active compounds at 1, 5, and 10 μM, followed two hours later by 15 μM TG. After two hrs, cell lysates were prepared, normalized for protein content, and either analyzed by SDS-PAGE/immunoblotting using anti-p38-MAPK pan-reactive antibody or phospho-specific antibody with ECL-based detection, followed by densitometry analysis of x-ray films, normalizing phosphor-p38 MAPK relative to total p38 MAPK, or analyzed using a meso-scale instrument from MSD and a procedure in which total p38 MAPK is captured on plates, and the relative amounts of phosphorylated protein were determined using phospho-specific antibody (MSD catalog #K15112D1). […] Suppression of p38 MAPK and c-Jun phosphorylation was dose-dependent, and could not be explained by a decline in total levels of these proteins. […] Proteolytic processing of ATF6 was also not inhibited by our hit compounds. […] Screens of other libraries (such as the NIH compound collection) may yield cytoprotective compounds with different mechanisms.
1) CSM14.1 cells were plated at a density of 2×10^5 cells/well at 6 well dish (Greiner Bio one) in DMEM containing 2% FBS and antibiotics.
2) After overnight incubation, cells were treated by DMSO (0.5%) or compounds (25 μM) for two hours, followed by TG (15 uM) treatment.
3) After two hours, cells were lyzed in 250 uL of lysis buffer and subjected to protein concentration decision, and to SDS PAGE/Western blotting using antibodies specific for phospho p38 MAPK (Cell signaling 9211), p38 MAPK (Santa Cruz-C20), phospho c-Jun (Cell signaling 9164), c-Jun (Santa Cruz-SC 1694), phospho eIF2α (Cell signaling 3597) and α-tubulin.
CSM 14.1 cells were cultured with DMSO or with 25 μM of hit compounds for two hours followed by treatment with thapsigargin (15 μM). Cell lysates were prepared and analyzed by SDS-PAGE/immunoblotting using antibodies specific for: c-Jun, phosphor-c-Jun (ser 73), eIF2a, phosphor-eIF2a (ser 51), p38 MAPK, phosphor-p38 MAPK (Thr180/Tyr182), ATF-6, CHOP and tubulin (loading control). ER stress-induced activation of C-Jun and p38 MAPK is suppressed by the 11 hit compounds.
CSM cells were treated with two compounds at increasing doses. Pre-incubation time, thapsigargin treatment, cell extract preparation and immunoblotting protocols were as described previously.

[4] = system: CSM14.1 cells; assay: Pilot dose-response of thapsigargin on undifferentiated CSM14.1 cells (ATP content, vital dye exclusion)
Procedure: In pilot experiments, undifferentiated CSM14.1 cells were plated at various densities in wells of a 96 well plate, cultured overnight, then the ATP content of the cells was measured using the luminogenic ATPlite reagent (FIG. 4A). We also performed dose-response experiments for thapsigargin (FIG. 4B) by culturing CSM14.1 cells at 3,000 cells per well overnight, then treating the cells with various concentrations of TG or Sal and cultured for 18 hrs before determining ATP content (mean ±SD; n=3) (FIG. 4B). Similarly, we performed dose response experiments for Salubrinal (Sal). Cells were plated and cultured as above, then treated with various concentrations of Salubrinal, followed two hrs later by 15 uM TG. Cells were cultured for 18 hrs, then ATP content was determined (mean ±SD; n=3) (FIG. 4C). […] As a control, we employed Salubrinal, which was reported to block ER stress-induced cell death (Boyce et al., Science, 307:935-939, 2005).

[5] = first assay, read-out: IC50 (μM), first value
[6] = second assay (value in bold), read-out: IC50 (μM), value from a second assay
[7] = one value given, read-out: IC50

## O=C(CN1CC[n+]2c(-c3cccs3)csc21)c1ccccc1.[Br-] [Compound 5979207]
[1]
  Activity against thapsigargin-induced cell death / cell protection: potent inhibitor of cell death
[2]
  Protection against TG-induced cell death measured by annexin V staining: less active

## COc1cccc(CN2CCN(C(=O)c3ccc(-c4ccccc4)cc3)CC2)c1 [Compound 5998734]
[1]; [5]
  IC50: 20 ± 0.493 µM
[1]; [6]
  IC50: 14.6 ± 26.6 µM
[2]
  Protection against TG-induced cell death measured by annexin V staining: less active

## COc1ccc(C2CC(=O)C3=C(C2)Nc2ccccc2NC3c2cccc(O)c2)cc1 (centres unmarked) [Compound 6048163]
[1]
  Activity against thapsigargin-induced cell death / cell protection: inactive in cell protection; also recorded: not potent as an inhibitor of cell death
[1]; [7]
  IC50: > 200 µM
[3]
  Thapsigargin-induced phosphorylation of c-Jun: fail to suppress

## COc1ccc(C2CC(=O)C3=C(C2)Nc2ccccc2NC3c2ccncc2)cc1OC (centres unmarked) [Compound 6075841]
[1]
  Activity against thapsigargin-induced cell death / cell protection: inactive
[1]; [7]
  IC50: > 200 µM
[3]
  Thapsigargin-induced phosphorylation of c-Jun: fail to suppress

## CCCOc1ccc(C2Nc3ccccc3NC3=C2C(=O)CC(c2ccc(OC)c(OC)c2)C3)cc1 (centres unmarked) [Compound 6237877]
[1]; [5]
  IC50: 16.3 ± 0.439 µM
[1]; [7]
  IC50: 12.5 ± 0.17 µM
[1]; [6]
  IC50: 12.5 ± 0.17 µM
[3]
  Thapsigargin-induced phosphorylation of c-Jun: dose-dependent decrease

## C/C=C(/C)C(=O)O[C@H]1C(C)=C2[C@H]([C@@H]1OC(=O)CCCCCCC)[C@@](C)(OC(C)=O)C[C@H](OC(=O)CCC)[C@@]1(O)[C@H]2OC(=O)[C@@]1(C)O [thapsigargin]
[4]; 15 μM thapsigargin, 3,000 cells per well, 18 hrs
  reduction in ATP per well: ~95%
[4]; 15 μM thapsigargin, vital dye exclusion assays
  cell killing: ~95%
